How the values were obtained:
rat brain (BBB) [1] = assay: Dynamic Contrast Enhanced MRI (DCE-MRI) of rat brain; format: in vivo
Experimental: Yet another set of in vivo experiments was performed using Dynamic Contrast Enhanced MRI (DCE-MRI) with intravenous injection of Gadolinium contrast agent (Gd-DTPA, Magnetol, MW 547). In these experiments, test rats were treated with 100 kHz alternating electric fields for 72 h, and control rats were not treated with alternating electric fields for the same period of time. After this 72 h period, the alternating electric field was turned off, the rats were anesthetized, and a series of 60 T1w MRI scans (each of the scans having a duration of 28 seconds) was acquired. The gadolinium contrast agent was injected into the rat's tail vein during the 7th of these 60 scans.
The image analysis for each rat included (1) determining a baseline for each voxel by calculating the mean of the first six T1w MRI scans for each voxel (i.e., the scans prior to the injection of the gadolinium); (2) computing voxel by voxel, the percent signal change (i.e., gadolinium accumulation) over time relative to the baseline; (3) segmenting the brain into anterior, middle, and posterior segments; (4) generating for each of the three segments the mean percent signal change with respect to the baseline over all the voxels in the respective segment and then (5) averaging 4 consecutive time points (i.e. 4 scans) together. Finally, the data from all of the rats within any given group were averaged together. […]

rat brain (BBB) [2] = assay: Evans Blue accumulation in rat brain after alternating electric fields; format: in vivo
Source text: A set of in vivo experiments on rats was also run to quantify the increase in vessel permeability caused by exposure to the alternating electric fields. These experiments used Evans Blue (EB) dye, which is an azo dye that has a very high affinity for serum albumin (molecule size ˜69 kDa). Because of its large molecule size, serum albumin will ordinarily not be able to get past the BBB.
This was accomplished by shaving each rat's head, positioning a first pair of capacitively coupled electrodes on the top and bottom of the rat's head, and positioning a second pair of capacitively coupled electrodes on the left and right sides of the rat's head. A 100 kHz AC voltage was then applied between the top and bottom electrodes for 1 second, followed by a 100 kHz AC voltage applied between the right and left electrodes for 1 second, in a repeating sequence.
Under the conditions indicated in Table 1 and for the times indicated on Table 1, EB was injected intravenously into the tail vein under anesthesia (Once injected, EB immediately binds to Albumin), and the EB was allowed to circulate for 2 hours in all cases. The following steps were then performed: (a) intracardiac perfusion with saline; (b) brains are sliced in four pieces with a brain slicer; (c) pieces were photographed to localize staining and weighted; (d) EB extraction after tissue homogenization with TCA 50% (1:3) and centrifuge and (e) EB quantification at 610 nm. Results are given as μg EB per g tissue.
During the experiment, two animals from group 2 and one animal from group 4 were excluded (disrupted treatment, failure to inject EB into the tail vein). There were no differences between the animals treated with alternating electric fields (groups 1 and 2) and therefore these animals were grouped together. Similarly, there were no differences between sham heat and control animals (groups 3 and 4) and therefore these animals were grouped together.
EB accumulation in these four specific sections was then measured. In addition, a computer simulation was performed to determine the field strength in each of these four sections. […]

SMILES	contrast agent accumulation in the brain tissue (percent signal change) (rat brain (BBB) [1]; 100 kHz fields 72 h (n=6) vs control rats (n=3), i.v.)	contrast agent accumulation in the brain tissue (percent signal change) (rat brain (BBB) [1]; 100 kHz fields 72 h followed by 96 hours without fields (n=7) vs control+96 h (n=3))	average EB accumulation in the rat brain, averaged over all four sections 1-4 (rat brain (BBB) [2]; 100 kHz fields 72 h vs control, p<0.05)	EB accumulation in brain sections 1, 2 (frontal cerebrum) (rat brain (BBB) [2]; 100 kHz fields 72 h vs sham heat/control, EB i.v., 2 h circulation, highest field strength)	EB accumulation in posterior brain sections (3, 4) (rat brain (BBB) [2]; 100 kHz fields 72 h vs sham heat/control, EB i.v., 2 h circulation, lower field strength)
O=C([O-])CN(CCN(CC(=O)[O-])CC(=O)O)CCN(CC(=O)[O-])CC(=O)O.[Gd+3] [contrast agent, Gd-DTPA]	significantly higher	not significantly different			
Cc1cc(-c2ccc(/N=N/c3ccc4c(S(=O)(=O)O)cc(S(=O)(=O)O)c(N)c4c3O)c(C)c2)ccc1/N=N/c1ccc2c(S(=O)(=O)O)cc(S(=O)(=O)O)c(N)c2c1O [EB, Evans Blue]			higher accumulation	statistically significant increase	smaller increase (that was not statistically significant)

Source: patent US10967167B2, “Using alternating electric fields to increase permeability of the blood brain barrier” (priority 2018, dated 2021)
